Entries after “also recorded” stand apart in the source; their conditions may differ.
What was measured:
[1] = tested on: ICR-CD1 mice; assay: Dose safety verification after oral (i.g.) administration; format: in vivo; settings: 10 mg/kg i.g.
Experimental: phosphatase (ALP), amylase, and lactate dehydrogenase (LDH) were measured in the accredited biochemical laboratory of the Department of Clinical Biochemistry and Diagnostics, University Hospital, Hradec Kralove, Czech Republic. Statistical data analysis was performed through IBM SPSS Statistics version 26 (IBM, Armonk, NY, USA) using the Kolmogorov-Smirnov and Shapiro-Wilk tests to test data normality. Due to normally distributed data, the Student´s t-test was used to assess the differences compared with the control group (p ≤ 0.05).
Samples of the liver and kidney were used for standard histopathological examination. Organs were fixed with 10% neutral buffered formalin (Bamed s.r.o., Ceske Budejovice, Czech Republic), histologically processed, and stained with hematoxylin and eosin (both Merck) according to Pejchal et al.[41] The histopathological changes were evaluated using a BX-51 microscope (Olympus, Tokyo, Japan).
Dose safety verification after oral administration
Mice were randomly assigned to the experimental groups of two males and two females per one selected dose (10 mg/kg) of 6 to verify its safety. 6 was administered by a probe (i.g., 0.1 mL/10 g of animal weight; 1% Tween 80). Treated animals were intensively observed for signs of toxicity; then, the animals were subjected to macroscopic examination. The blood was collected for biochemical analysis of glucose, urea, and creatinine concentration and the activity of alanine transaminase (ALT), aspartate transaminase (AST), gamma-glutamyl transferase (GGT), alkaline phosphatase (ALP), amylase, and creatine kinase (CK). Selected organs (terminal esophagus, stomach, duodenum, pancreas, kidney, and liver) were collected for histopathologic examination. […]

[2] = tested on: SIM-A9 cells; assay: Intracellular RONS, DCFH-DA probe, SIM-A9; format: cell-based, mouse
[3] = molecular target: mGAT1 (Mus musculus, UniProt P31648); assay: MS Binding Assay with NO 711 as marker
[4] = molecular target: T1, eqBuChE (Equus caballus, UniProt P81908); assay: biochemical; settings: means±SEM of at least three experiments
T1 construct: purchased Sigma-Aldrich

[5] = tested on: SH-SY5Y cells; assay: Intracellular O2•-, DHE probe, SH-SY5Y; format: cell-based, human
[6] = molecular target: T2, human CYP2D6 (Homo sapiens, UniProt P10635); assay: Inhibition of human CYP450 isoforms (Vivid kits); format: in vitro ADME; settings: recombinant CYP2D6, 10 min
T2 construct: purchased Thermo Fisher Scientific
Experimental: nonlinear regression analysis using GraphPad Prism 9.0 software. All values are expressed as […]
Table S10. The viability of cells. neurotoxicity immuntoxicity
The results (viability values) are provided as a percentage of live cells with respect to DMSO (control sample)
Table S11. The viability of cells. […]
Inhibition of human CYP450 isoforms
The inhibitory potential of compound 6 toward human CYP1A2, CYP2C9, CYP2D6, and CYP3A4 enzymes was assessed using Vivid® CYP450 Screening Kits (Thermo Fisher Scientific, Waltham, MA, USA). A six -point concentration gradient of compound 6 was prepared in reaction buffer and pipetted onto a black 96 -well plate (Brand, Wertheim Germany) and then a mixture of the respective recombinant CYP isoenzyme and the NADPH regeneration system was added, following the manufacturer’s instructions. The DMSO concentration was maintained at 0.5% in all reaction v ariants including controls. […]
adding NADP+ and the respective CYP isoenzyme substrate. After a further 10-minute incubation at 37°C, the formation of the reaction product was measured as fluorescence using a SPARK microplate reader (TECAN, Männedorf, Switzerland). The half-maximal inhibitory concentration (IC50) values were calculated by fitting the data to sigmoidal Hill curves using GraphPad Prism version 10.1.2. […]

T2 sequence (P10635 whole entry, canonical isoform): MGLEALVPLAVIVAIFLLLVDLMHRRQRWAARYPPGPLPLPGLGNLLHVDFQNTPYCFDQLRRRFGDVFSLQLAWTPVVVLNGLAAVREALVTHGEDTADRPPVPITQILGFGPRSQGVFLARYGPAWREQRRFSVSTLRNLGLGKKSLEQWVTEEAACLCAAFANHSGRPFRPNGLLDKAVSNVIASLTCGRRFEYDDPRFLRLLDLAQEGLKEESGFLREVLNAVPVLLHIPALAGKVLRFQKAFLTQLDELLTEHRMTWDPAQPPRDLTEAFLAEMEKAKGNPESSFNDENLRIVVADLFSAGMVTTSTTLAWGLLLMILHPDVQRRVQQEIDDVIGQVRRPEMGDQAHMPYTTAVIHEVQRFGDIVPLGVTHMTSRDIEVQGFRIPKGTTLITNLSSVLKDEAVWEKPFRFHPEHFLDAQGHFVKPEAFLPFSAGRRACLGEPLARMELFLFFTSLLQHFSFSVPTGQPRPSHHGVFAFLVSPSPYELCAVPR
T1 sequence (P81908 whole entry): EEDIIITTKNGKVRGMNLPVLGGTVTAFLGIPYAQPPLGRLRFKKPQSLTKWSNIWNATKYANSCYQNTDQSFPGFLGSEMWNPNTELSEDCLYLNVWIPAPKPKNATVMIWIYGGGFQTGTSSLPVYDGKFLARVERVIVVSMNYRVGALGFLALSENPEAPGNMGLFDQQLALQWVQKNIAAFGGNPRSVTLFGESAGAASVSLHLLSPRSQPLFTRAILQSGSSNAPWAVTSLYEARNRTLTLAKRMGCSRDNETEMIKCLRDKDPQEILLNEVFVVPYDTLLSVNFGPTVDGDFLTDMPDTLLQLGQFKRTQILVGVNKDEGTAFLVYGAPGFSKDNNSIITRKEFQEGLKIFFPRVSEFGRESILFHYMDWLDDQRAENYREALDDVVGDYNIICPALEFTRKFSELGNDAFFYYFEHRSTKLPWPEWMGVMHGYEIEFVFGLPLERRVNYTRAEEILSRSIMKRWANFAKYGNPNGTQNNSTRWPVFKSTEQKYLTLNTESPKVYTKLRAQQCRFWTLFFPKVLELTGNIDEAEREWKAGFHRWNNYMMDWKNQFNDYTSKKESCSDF

## O[C@H](CNCC1CC1)[C@H](Cc1ccccc1)NC1c2ccccc2-c2ccccc21 [Compound 6]
[1]
  Necropsy: no pathology of internal organs
  signs of toxicity: no signs of poisoning occurred; also recorded: no signs of toxicity occurred
[1]; 48 h
  ALP, plasma: 61.2 ± 6.2 U/L
  ALT, plasma: 30.0 ± 1.6 U/L
  AST, plasma: 51.3 ± 7.0 U/L
  Amylase, plasma: 2630 ± 110 U/L
  CK, plasma: 123 ± 25 U/L
  Glucose, plasma: 205 ± 16 mg/dL
  Urea, plasma: 38.6 ± 2.5 mg/dL
  blood biochemistry vs control: no significant changes; also recorded: lack of significant changes in blood biochemistry
[1]; liver, kidney, esophagus, stomach, duodenum, pancreas
  histopathological examinations: no tissue damage
[2]; IC50, ½ IC50, ¼ IC50, 1, 4, 24 h
  increase in intracellular RONS: no significant increase
[2]; conc. = IC50, 24 h
  intracellular RONS, times lower: 1.63 fold
[3]
  Ki: 37.2 µM
[4]
  IC50: 0.31 ± 0.01 µM
[5]; all concentrations and times
  increase in intracellular O2•-: No significant increase
[5]; conc. = IC50, 24 h
  decrease of O2•- level: 15%
[6]
  CYP2D6 inhibition: CYP2D6 inhibitor

Reference: PMC11796312, “Multifunctional, Fluorene‐Based Modulator of Cholinergic and GABAergic Neurotransmission as a Novel Drug Candidate for Palliative Treatment of Alzheimer's Disease” (Angewandte Chemie (International Ed. in English), 2024)
